Test results from article PMC3385710, “Assessment of 5-HT7 Receptor Agonists Selectivity Using Nociceptive and Thermoregulation Tests in Knockout versus Wild-Type Mice” (Advances in Pharmacological Sciences, 2012).

How the values were obtained:
wild-type mice [1] = test: Formalin test in wild-type mice; format: in vivo; conditions: 15-30 min after formalin, versus vehicle
Description: (§1) Formaldehyde (37 wt.% solution) was purchased from Panreac (Spain) and dissolved in physiological saline. Drugs used for treatments were AS-19 (dimethyl-[5-(1,3,5-tri-methyl-1H-pyrazol-4-yl)-1,2,3,4-tetrahydro-naphthalen-2(S)-yl]-amine), E-55888 (dimethyl-{2-[3-(1,3,5-trimethyl-1H-pyrazol-4-yl)-phenyl]-ethyl}-amine dihydrochloride), and E-57431 (2-(2-(dimethylamino)ethyl)-4-(1,3,5-tri-methyl-1H-pyrazol-4-yl)phenol). AS-19 is a potent selective 5-HT7 receptor agonist commercially available from Tocris Bioscience (UK), whereas E-55888 and E-57431 are 5-HT7 receptor agonists developed by ESTEVE Laboratories (Barcelona, Spain). All three 5-HT7 receptor agonists were synthesized for the purpose of this study at ESTEVE, dissolved in aqueous solutions containing 0.5% (hydroxypropyl) methyl cellulose (Sigma-Aldrich, Spain) and administered in a volume of 5 ml/kg through the subcutaneous (s.c.) route. Doses of drugs (referred to their salt forms) and time of evaluation were selected based on previous studies and on pilot experiments in models used in this study. All treatments were performed under blind conditions in independent groups of mice and behavioral evaluation was done 30 min after drug administration.
(§2) Formalin (20 μL of a 2.5% formalin solution; 0.92% of formaldehyde) was injected into the dorsal surface on the right hind paw, as previously described. […] Mice were placed on a paper surface surrounded by a plexiglas cylinder (20 × 25 cm) and the time spent licking and biting the injected paw was measured using a chronometer. A time course of the licking/biting behaviors was monitored during 45 minutes after formalin injection to evaluate possible differences between genotypes. Drug effects were quantified at 0–5 min (phase I) and 15–30 min (phase II) after formalin injection, two periods of time in which the formalin-induced licking and biting time was high enough to test antinociceptive effects of drugs.

[2] = system: 5-HT7 receptor knockout mice; test: Formalin test in 5-HT7 receptor knockout mice; format: in vivo; conditions: 15-30 min after formalin, versus vehicle
Description: as §1, §2

wild-type mice [3] = test: Rectal (body) temperature in wild-type mice; format: in vivo; conditions: for Effect on body temperature: 30 min after administration
Description: as §1
(§3) The body temperature was recorded using a precision thermometer (YSI 4600) equipped with a flexible probe (YSI 402). This probe was lubricated with vaseline and inserted 2 cm into the rectum. Temperature recordings were made 20 s following insertion of the probe, as previously described.

[4] = system: 5-HT7 receptor knockout mice; test: Rectal (body) temperature in 5-HT7 receptor knockout mice; format: in vivo; conditions: for Effect on body temperature: 30 min after administration
Description: as §1, §3

h5-HT1A = conditions: cited from earlier work; for Affinity ratio versus 5-HT7 receptors (Ki h5-HT1A/Ki 5-HT7): number-fold higher for 5-HT7 than for the tested receptor; for Ki: radioligand binding, read-out: Affinity (Ki (nM)) h5-HT1A
r5-HT1B = system: r5-HT1B; parameters: method as in PMID 19118950, PMID 20399562; conditions: cited from earlier work; for Ki: radioligand binding, read-out: Affinity (Ki (nM)) r5-HT1B
h5-HT1D = conditions: cited from earlier work; for Affinity ratio versus 5-HT7 receptors (Ki h5-HT1D/Ki 5-HT7): number-fold higher for 5-HT7 than for the tested receptor; for Ki: radioligand binding, read-out: Affinity (Ki (nM)) h5-HT1D
h5-HT2A = target: h5-HT2A; parameters: method as in PMID 19118950, PMID 20399562; conditions: cited from earlier work; for Ki: radioligand binding, read-out: Affinity (Ki (nM)) h5-HT2A
h5-HT2B = target: h5-HT2B; parameters: method as in PMID 19118950, PMID 20399562; conditions: radioligand binding; read-out: Affinity (Ki (nM)) h5-HT2B; cited from earlier work
h5-HT2C = target: h5-HT2C; parameters: method as in PMID 19118950, PMID 20399562; conditions: radioligand binding; read-out: Affinity (Ki (nM)) h5-HT2C; cited from earlier work
h5-HT3 = target: h5-HT3; parameters: method as in PMID 19118950, PMID 20399562; conditions: radioligand binding; read-out: Affinity (Ki (nM)) h5-HT3; cited from earlier work
gp5-HT4 = target: gp5-HT4; parameters: method as in PMID 19118950, PMID 20399562; conditions: radioligand binding; read-out: Affinity (Ki (nM)) gp5-HT4; cited from earlier work
h5-HT5A = system: h5-HT5A; parameters: method as in PMID 19118950, PMID 20399562; conditions: cited from earlier work; for Ki: radioligand binding, read-out: Affinity (Ki (nM)) h5-HT5A
h5-HT6 = target: h5-HT6; parameters: method as in PMID 19118950, PMID 20399562; conditions: radioligand binding; read-out: Affinity (Ki (nM)) h5-HT6; cited from earlier work
h5-HT7 [5] = target: h5-HT7; parameters: method as in PMID 19118950, PMID 20399562; conditions: radioligand binding; read-out: Affinity (Ki (nM)) h5-HT7; cited from earlier work
h5-HT transporter (SERT) = target: h5-HT transporter (SERT); parameters: method as in PMID 19118950, PMID 20399562; conditions: radioligand binding; read-out: Affinity (Ki (nM)) h5-HT transporter (SERT); cited from earlier work
Other receptors = target: Other receptors; parameters: method as in PMID 19118950, PMID 20399562; conditions: panel of other receptors assayed; read-out: Affinity (Ki (nM)) Other receptors; cited from earlier work
h5-HT7 [6] = system: h5-HT7; parameters: method as in PMID 19118950, PMID 20399562; conditions: HEK-293F/h5-HT7 cells, cited from earlier work; for EC50: read-out: EC50, cAMP formation; for Maximal effect (E max), cAMP formation: relative to that of 5-HT
5-HT1A = system: 5-HT1A; parameters: method as in PMID 14741267; conditions: cited from earlier work
h5-HT4e = target: h5-HT4e; parameters: method as in PMID 19118950, PMID 20399562; conditions: radioligand binding; read-out: Affinity (Ki (nM)) h5-HT4e; cited from earlier work
rats = system: rats; parameters: method as in PMID 16098671; conditions: cited from earlier work
dopamine D2 receptor = system: dopamine D2 receptor; parameters: method as in PMID 17649988; conditions: cited from earlier work
[7] = system: 5-HT1B, 5-HT2B, 5-HT2C, and 5-HT5A; parameters: method as in PMID 20600619; conditions: cited from earlier work
[8] = number-fold higher for 5-HT7 than for the tested receptor

SMILES: Cc1nn(C)c(C)c1-c1cccc2c1CC[C@H](N(C)C)C2 [AS-19, dimethyl-[5-(1,3,5-tri-methyl-1H-pyrazol-4-yl)-1,2,3,4-tetrahydro-naphthalen-2(S)-yl]-amine, reference compound]
- Formalin phase II licking/biting time (wild-type mice [1]; 10 mg/kg s.c.): significant reduction
- Formalin phase II licking/biting time significantly reduced ([2]; 10 mg/kg s.c.): not
- Effect on body temperature (wild-type mice [3]; 10 mg/kg s.c.): did not significantly change
- Body temperature reduction (wild-type mice [3]; 20 mg/kg s.c.): 3.8 °C
- Effect on body temperature (wild-type mice [3]; 20 mg/kg s.c.): significantly reduced
- Effect on body temperature ([4]; 10 mg/kg s.c.): did not significantly change
- Body temperature reduction ([4]; 20 mg/kg s.c.): 2.4 °C
- Effect on body temperature ([4]; 20 mg/kg s.c.): significantly reduced
- Affinity ratio versus 5-HT7 receptors (Ki h5-HT1A/Ki 5-HT7) (h5-HT1A): 149.5 x
- Ki (h5-HT1A): 89.7 nM
- Affinity ratio versus 5-HT7 receptors (Ki r5-HT1B/Ki 5-HT7) (r5-HT1B; [8]): 816.6 x
- Ki (r5-HT1B): 490 nM
- Affinity for 5-HT7 higher than for 5-HT1D (h5-HT1D): 11 fold
- Affinity ratio versus 5-HT7 receptors (Ki h5-HT1D/Ki 5-HT7) (h5-HT1D): 11 x
- Ki (h5-HT1D): 6.6 nM
- Ki (h5-HT2A): > 1000 nM
- Ki (h5-HT2B): > 1000 nM
- Ki (h5-HT2C): > 1000 nM
- Ki (h5-HT3): > 1000 nM
- Ki (gp5-HT4): > 1000 nM
- Affinity ratio versus 5-HT7 receptors (Ki h5-HT5A/Ki 5-HT7) (h5-HT5A; [8]): 164.2 x
- Ki (h5-HT5A): 98.5 nM
- Ki (h5-HT6): > 1000 nM
- Ki (h5-HT7 [5]): 0.6 nM
- Ki (h5-HT transporter (SERT)): > 1000 nM
- Ki (Other receptors): > 1000 nM
- EC50 (h5-HT7 [6]): 9 ± 1 nM
- Maximal effect (E max), cAMP formation (h5-HT7 [6]): 77%

SMILES: CN(C)CCSc1cccc(-c2ccccc2)n1 [MSD-5a]
- Affinity for 5-HT7 higher than for 5-HT1A (5-HT1A): 28.6 fold

SMILES: Cc1nn(C)c(C)c1-c1cccc(CCN(C)C)c1.Cl.Cl [E-55888, dimethyl-{2-[3-(1,3,5-trimethyl-1H-pyrazol-4-yl)-phenyl]-ethyl}-amine dihydrochloride]
- Formalin phase II licking/biting time (wild-type mice [1]; 20 mg/kg s.c.): significant reduction
- Formalin phase II licking/biting time significantly reduced ([2]; 20 mg/kg s.c.): not
- Effect on body temperature (wild-type mice [3]; 20 mg/kg s.c.): did not significantly change
- Effect on body temperature ([4]; 20 mg/kg s.c.): did not significantly change
- Affinity for 5-HT7 higher than for 5-HT1A (h5-HT1A): 280 fold
- Affinity ratio versus 5-HT7 receptors (Ki h5-HT1A/Ki 5-HT7) (h5-HT1A): 280 x
- Ki (h5-HT1A): 700 nM
- Ki (r5-HT1B): > 1000 nM
- Ki (h5-HT1D): > 1000 nM
- Ki (h5-HT2A): > 1000 nM
- Ki (h5-HT2B): > 1000 nM
- Ki (h5-HT2C): > 1000 nM
- Ki (h5-HT3): > 1000 nM
- Ki (h5-HT4e): > 1000 nM
- Ki (h5-HT5A): > 1000 nM
- Ki (h5-HT6): > 1000 nM
- Ki (h5-HT7 [5]): 2.5 nM
- Ki (h5-HT transporter (SERT)): > 1000 nM
- Ki (Other receptors): > 1000 nM
- EC50 (h5-HT7 [6]): 16 ± 1 nM
- Maximal effect (E max), cAMP formation (h5-HT7 [6]): 99 ± 1%

SMILES: Cc1nn(C)c(C)c1-c1ccc(O)c(CCN(C)C)c1 [E-57431, 2-(2-(dimethylamino)ethyl)-4-(1,3,5-tri-methyl-1H-pyrazol-4-yl)phenol]
- Formalin phase II licking/biting time (wild-type mice [1]; 10 mg/kg s.c.): significant reduction
- Formalin phase II licking/biting time significantly reduced ([2]; 10 mg/kg s.c.): not
- Effect on body temperature (wild-type mice [3]; 10 mg/kg s.c.): did not significantly change
- Body temperature reduction (wild-type mice [3]; 20 mg/kg s.c.): 1.1 °C
- Effect on body temperature (wild-type mice [3]; 20 mg/kg s.c.): significantly reduced
- Effect on body temperature ([4]; 10 mg/kg s.c.): did not significantly change
- Body temperature reduction ([4]; 20 mg/kg s.c.): 2.3 °C
- Effect on body temperature ([4]; 20 mg/kg s.c.): significantly reduced
- Ki (h5-HT1A): > 1000 nM
- Ki (r5-HT1B): > 1000 nM
- Affinity for 5-HT7 higher than for 5-HT1D (h5-HT1D): 112.7 fold
- Affinity ratio versus 5-HT7 receptors (Ki h5-HT1D/Ki 5-HT7) (h5-HT1D): 112.7 x
- Ki (h5-HT1D): 53 nM
- Affinity ratio versus 5-HT7 receptors (Ki h5-HT2A/Ki 5-HT7) (h5-HT2A; [8]): 1191.5 x
- Ki (h5-HT2A): 560 nM
- Ki (h5-HT2B): > 1000 nM
- Ki (h5-HT2C): > 1000 nM
- Ki (h5-HT3): > 1000 nM
- Ki (h5-HT4e): > 1000 nM
- Ki (gp5-HT4): > 1000 nM
- Ki (h5-HT5A): > 1000 nM
- Ki (h5-HT6): > 1000 nM
- Ki (h5-HT7 [5]): 0.47 nM
- Ki (h5-HT transporter (SERT)): > 1000 nM
- Ki (Other receptors): > 1000 nM
- EC50 (h5-HT7 [6]): 21.5 ± 1 nM
- Maximal effect (E max), cAMP formation (h5-HT7 [6]): 94.5 ± 1%

SMILES: CC1CCN(CC[C@H]2CCCN2S(=O)(=O)c2cccc(O)c2)CC1 [SB-269970, (R)-3-(2-(2-(4-methylpiperidin-1-yl)-ethyl)pyrrolidine-1-sulfonyl)phenol]
- Effect on 5-carboxamidotryptamine-induced increase of phase II formalin nociceptive behavior (rats): significantly reversed

SMILES: N#Cc1ccc(CNC(=O)CCCCCN2CCN(c3ccccc3-c3ccccc3)CC2)cc1 [LP-211]
- Affinity for 5-HT7 higher than for dopamine D2 receptor (dopamine D2 receptor): 33 fold
- Affinity for 5-HT7 higher than for 5-HT1B, 5-HT2B, 5-HT2C, and 5-HT5A [7]: 5-14 fold

SMILES: NCCc1c[nH]c2ccc(C(N)=O)cc12 [5-carboxamidotryptamine]
- Phase II formalin-induced nociceptive behavior (rats; intraplantar or spinal administration): increased
